Series [1] is described as follows: Differential scanning calorimetry (DSC), glass transition point. In kind it is physicochemical. As to conditions: determined by DSC. From the text: (Differential Scanning Calorimetry (DSC))
The results of the glass transition point (Tg) determined by DSC of the triarylamine dimer derivatives obtained in Examples 1 to 6 are shown in Table 3.

Series [2] can be described thus: Determination of the solubility in organic solvents. In kind it is physicochemical. To be noted: for Solubility (g/ml) DMF / Solubility (g/ml) THF / Solubility (g/ml) Chloroform / Solubility (g/ml) Dichloromethane / Solubility (g/ml) Xylene / solubility: 5 ml, added until saturation; for Solubility (g/ml) Xylene: solvent xylene; for solubility: organic solvent or mixture, thermodynamic from solid. On the procedure:
(Determination of the Solubility)
Respectively, 5 ml of the solvents of THF, DMF, xylene, chloroform and dichloromethane were measured and poured into 20 ml of tubular bottoms with screw caps. […] The solubility (g/ml) to the respective solvent was determined from the weight of the triarylamine dimer derivative added until saturation.

Where [3] appears, read: chloroform, solvent chloroform, read-out: Solubility (g/ml) Chloroform.
Where [4] appears, read: dichloromethane, solvent dichloromethane, read-out: Solubility (g/ml) Dichloromethane.

Converted amounts (≈) assume the structure as drawn. Where two headings read alike, the source gives them in different places.

Take `Cc1cccc(N(c2ccccc2)c2ccc(-c3ccc(N(c4ccccc4)c4cccc(C)c4)cc3)cc2)c1` [Example1, N,N′-diphenyl-N,N′-bis(3-tolyl)-4,4′-diaminobiphenyl]: the “Glass Transition Point(Tg)” value in series [1] stood at 63.2 Degrees C.
As for `c1ccc(N(c2ccc(-c3ccc(N(c4ccccc4)c4cccc5ccccc45)cc3)cc2)c2cccc3ccccc23)cc1` [Comparative Example4, N,N′-diphenyl-N,N′-bis(1-naphthyl)-4,4′-diaminobiphenyl], in series [2] (solvent DMF), the “Solubility (g/ml) DMF” value came to 0.001 g/mL (≈ 1.7 mM). In addition, the “Solubility (g/ml) THF” value in series [2] (solvent THF) turned out to be 0.009 g/mL (≈ 15.3 mM). Also, in series [2] (solvent chloroform), the “Solubility (g/ml) Chloroform” value came to 0.024 g/mL (≈ 40.8 mM). Moreover, in series [2] (solvent dichloromethane), the “Solubility (g/ml) Dichloromethane” value came to 0.021 g/mL (≈ 35.7 mM). For the same molecule, the “Solubility (g/ml) Xylene” value in series [2] was 0.002 g/mL (≈ 3.4 mM).
With `c1ccc(N(c2ccc(-c3ccc(N(c4ccccc4)c4ccc5ccccc5c4)cc3)cc2)c2ccc3ccccc3c2)cc1` [Example5, N,N′-diphenyl-N,N′-bis(2-naphthyl)-4,4′-diaminobiphenyl], in series [2], the “Solubility in organic solvent (in words)” value is reported as “very high solubility” and the “Solubility (g/ml) Xylene” value worked out at 0.558 g/mL (≈ 948 mM). Moreover, the solubility in series [2] (setting [3]) stood at 0.632 g/mL (≈ 1070 mM). The “Solubility compared with alpha-NPD (times higher)” value in series [2] (organic solvents of Table 2) was “ten to several hundreds times higher”. In addition, the “Solubility (g/ml) DMF” value in series [2] (solvent DMF) worked out at 0.301 g/mL (≈ 511 mM). The “Solubility (g/ml) THF” value in series [2] (solvent THF) is above 0.795 g/mL. Besides, in series [2] (solvent dichloromethane), the “Solubility (g/ml) Dichloromethane” value amounted to 0.471 g/mL (≈ 800 mM). In addition, in series [1], the “Glass Transition Point(Tg)” value came to 99.4 Degrees C.
In the case of `Cc1ccc(N(c2ccccc2)c2ccc(-c3ccc(N(c4ccccc4)c4ccc(C)cc4)cc3)cc2)cc1` [Example2, N,N′-diphenyl-N,N′-bis(4-tolyl)-4,4′-diaminobiphenyl], the “Solubility (g/ml) DMF” value in series [2] (solvent DMF) came to 0.060 g/mL (≈ 116 mM). Further, the “Solubility (g/ml) THF” value in series [2] (solvent THF) is 0.732 g/mL (≈ 1420 mM). Also, the “Solubility (g/ml) Chloroform” value in series [2] (solvent chloroform) was 0.892 g/mL (≈ 1730 mM). In series [2] (solvent dichloromethane), the “Solubility (g/ml) Dichloromethane” value came out at 0.696 g/mL (≈ 1350 mM). The “Solubility (g/ml) Xylene” value in series [2] was found to be 0.334 g/mL (≈ 646 mM). In addition, the “Glass Transition Point(Tg)” value in series [1] came out at 75.0 Degrees C.
For the molecule `c1ccc(N(c2ccc(-c3ccc(N(c4ccccc4)c4cccc5ccccc45)cc3)cc2)c2cccc3ccccc23)cc1` [Example4, N,N′-diphenyl-N,N′-bis(1-naphthyl)-4,4′-diaminobiphenyl], the solubility in series [2] (setting [3]) came to 0.043 g/mL (≈ 73 mM); in series [2] (setting [4]), 0.029 g/mL (≈ 49.3 mM). For the same molecule, the “Solubility (g/ml) DMF” value in series [2] (solvent DMF) is 0.007 g/mL (≈ 11.9 mM). The “Solubility (g/ml) THF” value in series [2] (solvent THF) worked out at 0.028 g/mL (≈ 47.6 mM). Moreover, the “Solubility (g/ml) Xylene” value in series [2] stood at 0.009 g/mL (≈ 15.3 mM). Further, the “Glass Transition Point(Tg)” value in series [1] came to 98.8 Degrees C.
As to `Cc1ccc(N(c2ccccc2)c2ccc(-c3ccc(N(c4ccccc4)c4ccc(C)cc4)cc3)cc2)cc1` [Comparative Example2, N,N′-diphenyl-N,N′-bis(4-tolyl)-4,4′-diaminobiphenyl], the solubility is 0.036 g/mL (≈ 69.7 mM) in series [2] (DMF, solvent DMF, read-out: Solubility (g/ml) DMF); 0.413 g/mL (≈ 799 mM) in series [2] (THF, solvent THF, read-out: Solubility (g/ml) THF); 0.613 g/mL (≈ 1190 mM) in series [2] (setting [3]); 0.397 g/mL (≈ 768 mM) in series [2] (setting [4]). The “Solubility (g/ml) Xylene” value in series [2] came out at 0.152 g/mL (≈ 294 mM).
In the case of `c1ccc(N(c2ccc(-c3ccc(N(c4ccccc4)c4ccc5ccccc5c4)cc3)cc2)c2ccc3ccccc3c2)cc1` [Example6, N,N′-diphenyl-N,N′-bis(2-naphthyl)-4,4′-diaminobiphenyl], the “Solubility (g/ml) THF” value in series [2] (solvent THF) is above 0.795 g/mL. For the same molecule, in series [1], the “Glass Transition Point(Tg)” value was 99.4 Degrees C.
Consider `c1ccc(N(c2ccc(-c3ccc(N(c4ccccc4)c4ccc5ccccc5c4)cc3)cc2)c2ccc3ccccc3c2)cc1` [Comparative Example6, N,N′-diphenyl-N,N′-bis(2-naphthyl)-4,4′-diaminobiphenyl], for which the “Solubility (g/ml) DMF” value in series [2] (solvent DMF) was 0.033 g/mL (≈ 56.1 mM). Moreover, the “Solubility (g/ml) THF” value in series [2] (solvent THF) was 0.270 g/mL (≈ 459 mM). For the same molecule, the “Solubility (g/ml) Chloroform” value in series [2] (solvent chloroform) stood at 0.452 g/mL (≈ 768 mM). Further, the “Solubility (g/ml) Dichloromethane” value in series [2] (solvent dichloromethane) amounted to 0.226 g/mL (≈ 384 mM). Besides, the “Solubility (g/ml) Xylene” value in series [2] stood at 0.162 g/mL (≈ 275 mM).
The like results for `c1ccc(N(c2ccc(-c3ccc(N(c4ccccc4)c4ccc5ccccc5c4)cc3)cc2)c2ccc3ccccc3c2)cc1` [Comparative Example7, N,N′-diphenyl-N,N′-bis(2-naphthyl)-4,4′-diaminobiphenyl] were, in that order, 0.028 g/mL (≈ 47.6 mM), 0.202 g/mL (≈ 343 mM), 0.368 g/mL (≈ 625 mM), 0.209 g/mL (≈ 355 mM) and 0.155 g/mL (≈ 263 mM).
As to `c1ccc(N(c2ccc(-c3ccc(N(c4ccccc4)c4ccc5ccccc5c4)cc3)cc2)c2ccc3ccccc3c2)cc1` [Comparative Example5, N,N′-diphenyl-N,N′-bis(2-naphthyl)-4,4′-diaminobiphenyl], the “Solubility (g/ml) DMF” value in series [2] (solvent DMF) was 0.012 g/mL (≈ 20.4 mM). Besides, the “Solubility (g/ml) THF” value in series [2] (solvent THF) was 0.235 g/mL (≈ 399 mM). For the same molecule, the “Solubility (g/ml) Chloroform” value in series [2] (solvent chloroform) amounted to 0.395 g/mL (≈ 671 mM). Moreover, the “Solubility (g/ml) Dichloromethane” value in series [2] (solvent dichloromethane) amounted to 0.195 g/mL (≈ 331 mM). Also, the “Solubility (g/ml) Xylene” value in series [2] stood at 0.103 g/mL (≈ 175 mM).

For the origin of these results see patent US7598010B2, “Triarylamine dimer derivative having amorphous phase” (Orient Chemical Industries, Ltd., priority 2003, dated 2009).
